The values that follow are results of earlier work, collected in patent US8133870B2, “Therapeutic furopyrimidines and thienopyrimidines” (BioCryst Pharmaceuticals, Inc., priority 2004, dated 2012).

The data set has as its system HCV.

For the molecule `NC(=O)c1ncn([C@@H]2O[C@H](CO)[C@@H](O)[C@H]2O)n1` [Ribavirin, 1-β-D-ribofuranosyl-1-1,2,4-triazole-3-carboxamide], the toxicity entry (ribavirin) is given as “significant toxicity”. Where the note is “ribavirin alone, patients”, the “patients in whom serum amino transferase levels are reduced to normal” value is reported as 40% and the “serum levels of HCV-RNA” value is listed as “does not lower serum levels of HCV-RNA”.
